Experimental data: patent US20100152239A1, “Method to Improve Survival in Sepsis” (priority 2008, published 2010)

Tests used:
[1] = rats; cited from earlier work
TNF [2] = test: TNF protein in serum and organs by ELISA during resuscitation; format: in vivo, rat; conditions: non-splenectomized animals; 2 hrs; n=4/group
Protocol: (§1) Activation Blood was collected at 2 hrs after the hemorrhagic shock and analyzed using the i-Stat blood analyzer (Abbot Laboratories, IL, USA). Lung function was assessed by analyzing blood gases including total and partial carbon dioxide (TCO2, PCO2), bicarbonate (HCO3), pH and the base excess of extracellular fluid (BEecf). The organ function tests include […] sodium, potassium, chloride, the anion gap (AnGap), total plasma protein (TP), and blood urea nitrogen (BUN). Blood chemistry also included glucose, hematocrit and hemoglobin. The systemic inflammatory status was assessed by analyzing critical pro-inflammatory cytokines and cardiodepressant factors such as TNF and HMGB1. The major organs were collected and immediately sliced and washed with PBS at 4° C. TNF concentrations in serum and major organs were determined by ELISA (R&D Systems, Inc., Minneapolis, Minn., USA). HMGB1 was analyzed by Western blot as previously described.

[3] = mice; cited from earlier work
mRNA TNF = test: TNF transcription in heart and spleen by real-time PCR; format: in vivo, rat; conditions: 2 hrs after hemorrhage; as compared with Hextend; n=4/group
Protocol: We analyzed mRNA TNF levels in the heart and the spleen by real-time PCR (FIG. 5, GTS inhibits TNF transcription in the spleen during resuscitation. Organs from control or hemorrhagic animals without or with resuscitation were analyzed at 2 hrs after hemorrhage. TNF transcription in the (A) heart and (B) spleen was analyzed by real-time PCR. * represents P<0.05 versus HXT (n=4/group; one-way ANOVA with Bonferroni's corrections)). Hemorrhage increased mRNA TNF levels in both the heart and the spleen as analyzed by real-time PCR. […] In order to determine whether the inhibition of splenic TNF is sufficient to account for the anti-inflammatory potential of GTS, we analyzed the pharmacological implications of the spleen during resuscitation.

RelB NF-κB = RelB NF-κB binding to DNA in spleen (TransAM DNA-Binding ELISA); format: in vivo, rat; conditions: nuclear extracts at 2 hrs after hemorrhage
[4] = Blood chemistry during resuscitation (i-Stat); format: in vivo, rat; conditions: blood at 2 hrs after hemorrhage; n=4/group
Protocol: as §1

[5] = Arterial blood pressure during hemorrhage and resuscitation; format: in vivo, rat; conditions: 15 ml/kg resuscitation fluid i.v.
Protocol: Animals were anaesthetized by inhalation of isoflurane (5% induction, 2% maintenance; Minrad, Buffalo, N.Y., USA) and subjected to surgical catheter placement into the femoral artery and vein under sterile conditions. To avoid blood clot and maintain catheter patency, the catheters were flushed with 1% heparin solution immediately before placement. […] After the catheter implantation, the blood pressure and the heart rate were recorded for 15 min. to establish a physiological baseline prior the hemorrhage procedure. Then, the animals were subjected to hemorrhage over 15 min. to reach a mean arterial blood pressure (MAP) of 35-40 mmHg and subsequent maintenance of this blood pressure by continued blood withdrawal for another 15 min. After the shock phase, resuscitated animals received specific resuscitation treatment over 40 min. with a total volume of 15 ml/kg (equivalent to 1000 ml of Hextend in a 70 kg person). The femoral artery was catheterized with a catheter R-FAC (Braintree Scientific, Inc., Braintree, Mass., USA) previously flushed with 1% heparin in 0.9% saline to allow spontaneous bleeding due to arterial blood pressure. Shed blood was considered lost and it was not reinfused. After resuscitation treatment, the animals were kept anesthetized for 2 hrs to record heart rate, blood pressure and blood chemistry. […]

hemorrhagic rats = test: Survival after severe hemorrhage and resuscitation; format: in vivo, rat; conditions: for animals with hemorrhagic shock protected: n=7/group
Protocol: Adult male Sprague-Dawley (350-450 g) rats were purchased from Harlen Sprague-Dawley (Indianapolis, Ind., USA) and allowed to acclimate for 7 days, housed at 25° C. on a 12-hr light/dark cycle. Animals were randomly grouped and assigned to a specific experiment. Investigators were blinded to the experimental treatment.
Animals were anaesthetized by inhalation of isoflurane (5% induction, 2% maintenance; Minrad, Buffalo, N.Y., USA) and subjected to surgical catheter placement into the femoral artery and vein under sterile conditions. To avoid blood clot and maintain catheter patency, the catheters were flushed with 1% heparin solution immediately before placement. Heparin was not used in vivo during the experiment or observation period in agreement with previous studies. After the catheter implantation, the blood pressure and the heart rate were recorded for 15 min. to establish a physiological baseline prior the hemorrhage procedure. Then, the animals were subjected to hemorrhage over 15 min. to reach a mean arterial blood pressure (MAP) of 35-40 mmHg and subsequent maintenance of this blood pressure by continued blood withdrawal for another 15 min. After the shock phase, resuscitated animals received specific resuscitation treatment over 40 min. with a total volume of 15 ml/kg (equivalent to 1000 ml of Hextend in a 70 kg person). The femoral artery was catheterized with a catheter R-FAC (Braintree Scientific, Inc., Braintree, Mass., USA) previously flushed with 1% heparin in 0.9% saline to allow spontaneous bleeding due to arterial blood pressure. Shed blood was considered lost and it was not reinfused. After resuscitation treatment, the animals were kept anesthetized for 2 hrs to record heart rate, blood pressure and blood chemistry. The control animals were also anesthetized with isoflurane for blood collection. Then, the anesthesia was stopped and the animals were allowed to recover from anesthesia and housed individually in regular cages. Splenectomy was performed as we described previously. Briefly, the spleen was identified following a midline laparotomy incision, and removed after appropriate blood vessel ligation. Sham animals underwent laparotomy without splenectomy.
All data in the figures and text are expressed as mean±standard deviation (SD). Statistical analyzes were performed using the one-way ANOVA with multiple pairwise comparisons with the Bonferroni's adjustment for multiple hypothesis testing. The Student's t-test was used to compare mean values between two experimental groups. Statistical analyzes of survival were determined using the logrank test. P-values<0.05 were considered statistically significant.
Adult male Sprague-Dawley hemorrhagic rats received no resuscitation (NR) or were resuscitated with 15 ml/kg (i.v.) Hextend (HEXT) or Hextend supplemented with GTS (GTS). (A) Arterial blood pressure was recorded during hemorrhage and the resuscitation treatment. (B) All animals without resuscitation treatment (NR; n=10) died within the first 5 hrs after hemorrhage with an average time of death of 161±26 min. Resuscitation with Hextend allowed the animals to restore normal blood pressure and tissue perfusion, and yet 90% of the animals died (n=9). […] P<0.05 survival logrank test versus NR (*) or HXT(#).

[6] = test system: poly(ADP-ribose) polymerase (PARP); test: PARP activity in organ homogenates; format: in vivo, rat; conditions: liver homogenates; n=4/group
Protocol: (§2) Homogenates were normalized by protein concentration and the activation of IκBα was analyzed by Western blot by using anti-IκBα polyclonal antibody ab7217 and anti-phosphorylated-IκBα(phospho S32+S36) monoclonal antibody [clone39A1431] ab12135 (Abcam; Cambridge, Mass., USA). Transcriptional activity of splenic p65RelA was analyzed by TransAM DNABinding ELISA (Active Motif; Cambridge, Mass., USA) following manufacturer's instructions. […] Protein levels were measured using the Bradford method (BIO-RAD) and PARP activity was normalized to protein content.

p65RelA NF-κB = p65RelA NF-κB binding to DNA in organs (TransAM DNA-Binding ELISA); format: in vivo, rat; conditions: nuclear extracts at 2 hrs after hemorrhage
Protocol: as §2

TNF [7] = test: TNF protein in splenectomized hemorrhagic animals after resuscitation; format: in vivo, rat; conditions: n=4/group
Protocol: as §1

HMGB1 = test: Serum HMGB1 by Western blot during resuscitation; format: in vivo, rat; conditions: 2 hrs after hemorrhage; n=4/group
Protocol: as §1

[8] = test system: RAW264.7 macrophage cells; conditions: via alpha7nAchR; cited from earlier work
macrophages = conditions: via alpha7nAChR; cited from earlier work
serum TNF and HMGB1 = conditions: cited from earlier work

In the case of `COc1ccc(/C=C2\CCCN=C2c2cccnc2)c(OC)c1` [GTS, 3-[(2,4-dimethoxy)benzylidene]-anabaseine], the “effect on dopamine turnover” value [1] is given as “no effect”, the “TNF levels in organs (lung, liver, heart, spleen)” value (TNF [2]) is given as “blunted TNF levels in all of the organs” and the “serum (circulating) TNF levels” value (TNF [2]) is given as “circulating TNF levels similar to those in control mice”. The “effect on locomotor activity” value [3] was “no effect”, the “mRNA TNF levels in heart and spleen” value (mRNA TNF) was “decreased mRNA TNF levels in the spleen but not in the heart” and the “RelB NF-κB activation in spleen” value (RelB NF-κB) was “not affected”. For the same compound, the “AnGap, bicarbonate and chloride” value [4] was “re-established normal values of AnGap and bicarbonate but not hypochloremia”, the “hyperglycemic response (glucose)” value [4] was “significantly prevented” and the “metabolic acidosis (pH)” value [4] was “prevented metabolic acidosis”. For the same compound, the “uremia (blood urea nitrogen)” value [4] was “did not prevent uremia”, the “blood pressure after resuscitation” value [5] was “re-established blood pressure” and the “animals with hemorrhagic shock protected” value (hemorrhagic rats; 0.02 mg/kg GTS in Hextend) was 17%. The “protection as compared with Hextend solution alone (logrank)” value (hemorrhagic rats; 0.2 mg/kg GTS) was “statistically significant protection”, the “animals with hemorrhagic shock protected” value (hemorrhagic rats; 0.2 mg/kg GTS in Hextend) was 67% and the “protection as compared with Hextend solution alone (logrank)” value (hemorrhagic rats; 2 mg/kg GTS) was “statistically significant protection”. For the same compound, the “survival from lethal hemorrhage” value (hemorrhagic rats; Hextend supplemented with 350 uM GTS, 15 ml/kg i.v., n=7, followed up to 7 days) was “rescued all the animals from lethal hemorrhage”, the “hepatic PARP activity” value [6] was “inhibited PARP activation” and the “p65RelA NF-κB activation in organs (heart, liver, spleen)” value (p65RelA NF-κB) was “inhibited p65RelA NF-κB in most of the organs but not in the heart”. For the same compound, the “TNF levels in serum, lung and heart of splenectomized animals” value (TNF [7]) was “significantly inhibited serum TNF levels as well as TNF levels in the lung and the heart”, the “systemic (serum) TNF levels in splenectomized animals” value (TNF [7]) was “significantly inhibited systemic TNF levels” and the “serum HMGB1 levels” value (HMGB1) was “no serum HMGB1 was found”.
For `CN1CCCC1c1cccnc1` (stereo not drawn) [nicotine], the “endotoxin-induced p65NF-κB activation” value [8] is listed as “inhibits endotoxininduced p65NF-κB activation”, the “effect on locomotor activity” value [3] is listed as “biphasic effect” and the “production of TNF and HMGB1 in macrophages” value (macrophages) is listed as “inhibits TNF and HMGB1 production”. The survival (serum TNF and HMGB1; experimental models of systemic inflammation) was “improves survival”, the “serum TNF and HMGB1 levels” value (serum TNF and HMGB1; in vivo treatment, experimental models of systemic inflammation) was “inhibits serum TNF and HMGB1 levels” and the “systemic TNF levels in sham versus splenectomized animals” value (serum TNF and HMGB1; previous studies) was “attenuated systemic TNF levels in sham but not in splenectomized animals”.
